Assay results reported in ChEMBL document CHEMBL1201862, “PubChem BioAssay data set” (2004).
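Each compound was tested at five concentrations against cells in 96-well plates for 48 hours. Abbreviation: GI50, concentration required for 50% inhibition of growth.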 The source made the active and inactive calls. No stated cut-off is given here; in the data, active = GI50 up to about 1.1 µM and inactive = higher.

Experiments:
Assay in all cases: NCI tumour cell line growth inhibition, 48 h
[1] = tested on: 786-0
[2] = tested on: A498
[3] = tested on: A549
[4] = tested on: CAKI-1
[5] = tested on: CCRF-CEM
[6] = tested on: COLO 205
[7] = tested on: DLD-1
[8] = tested on: DMS-114
[9] = tested on: DMS-273
[10] = tested on: EKVX
[11] = tested on: HCC 2998
[12] = tested on: HCT-116
[13] = tested on: HL-60
[14] = tested on: HOP-62
[15] = tested on: HOP-92
[16] = tested on: HT-29
[17] = tested on: IGROV-1
[18] = tested on: K562
[19] = tested on: KM12
[20] = tested on: LXFL 529
[21] = tested on: M14
[22] = tested on: M19-MEL
[23] = tested on: MOLT-4
[24] = tested on: Malme-3M
[25] = tested on: NCI-H226
[26] = tested on: NCI-H23
[27] = tested on: NCI-H522
[28] = tested on: OVCAR-3
[29] = tested on: OVCAR-4
[30] = tested on: OVCAR-8
[31] = tested on: RPMI-8226
[32] = tested on: RXF 631
[33] = tested on: SF-268
[34] = tested on: SF-295
[35] = tested on: SF-539
[36] = tested on: SK-MEL-28
[37] = tested on: SK-MEL-2
[38] = tested on: SK-MEL-5
[39] = tested on: SK-OV-3
[40] = tested on: SN12C
[41] = tested on: SNB-19
[42] = tested on: SNB-75
[43] = tested on: SNB-78
[44] = tested on: SR
[45] = tested on: SW-620
[46] = tested on: TK-10
[47] = tested on: UACC-257
[48] = tested on: UACC-62
[49] = tested on: UO-31
[50] = tested on: XF498
[51] = tested on: ACHN
[52] = tested on: NCI-H460
[53] = tested on: OVCAR-5
[54] = tested on: RXF 393
[55] = tested on: U-251

Measured: GI50

CCCCCCCCCCCCCCCCCC(=O)NCC(COP(=O)(O)O)OCC (stereo unspecified)
inactive: [1] 30.7 µM | [2] 24.3 µM | [3] 31.1 µM | [4] 31.2 µM | [5] > 100 µM | [6] > 100 µM | [7] > 100 µM | [8] 33.6 µM | [9] 77.1 µM | [10] 46.3 µM | [11] > 100 µM | [12] 58.6 µM | [13] > 100 µM | [14] 22 µM | [15] 13.7 µM | [16] 68.7 µM | [17] 49.9 µM | [18] > 100 µM | [19] 25 µM | [20] > 100 µM | [21] 77.1 µM | [22] > 100 µM | [23] > 100 µM | [24] > 100 µM | [25] 27.7 µM | [26] 14.1 µM | [27] 29.7 µM | [28] > 100 µM | [29] > 100 µM | [30] 36.6 µM | [31] > 100 µM | [32] 25.8 µM | [33] 22.3 µM | [34] 18.5 µM | [35] 43.6 µM | [36] > 100 µM | [37] 38.1 µM | [38] > 100 µM | [39] 34.9 µM | [40] 22 µM | [41] 47.2 µM | [42] 26.1 µM | [43] 22.5 µM | [44] > 100 µM | [45] > 100 µM | [46] 49.2 µM | [47] > 100 µM | [48] 54.3 µM | [49] 34.1 µM | [50] 51.8 µM

CCC1=CC2CC(C(=O)OC)C1(N(C)C)C2=O (stereo unspecified)
inactive: [2] > 100 µM | [3] > 100 µM | [51] > 100 µM | [5] > 100 µM | [8] > 100 µM | [9] > 100 µM | [10] > 100 µM | [12] > 100 µM | [13] > 100 µM | [14] > 100 µM | [15] > 100 µM | [16] > 100 µM | [17] > 100 µM | [19] > 100 µM | [21] > 100 µM | [22] > 100 µM | [23] > 100 µM | [26] > 100 µM | [52] > 100 µM | [27] > 100 µM | [53] > 100 µM | [30] > 100 µM | [54] > 100 µM | [32] > 100 µM | [33] > 100 µM | [34] > 100 µM | [36] > 100 µM | [39] > 100 µM | [41] > 100 µM | [43] > 100 µM | [44] > 100 µM | [46] > 100 µM | [55] > 100 µM | [47] > 100 µM | [48] > 100 µM | [49] > 100 µM
